The values below come from patent US20250228882A1, “ORALLY-BIOAVAILABLE NUCLEOSIDE ANALOGS” (Venatorx Pharmaceuticals, Inc., priority 2022, published 2025).

The data set in a line: Bidirectional Caco-2 permeability assay. As to conditions: human, Caco-2. Format: in vitro ADME. The protocol:
The bidirectional permeability of compounds across the Caco-2 cell monolayer was assessed. The Caco-2 model is a widely used in vitro model for small intestinal absorption and potential for efflux. Cell culture. Caco-2 cells were grown in DMEM supplemented with 10% fetal bovine serum (FBS), 1% Penicillin-Streptomycin and 1% MEMNEAA. The cells were incubated at 37° C., 5% CO2/95% air and saturated humidity. After reaching 80-90% confluency, the cells were gently detached with trypsin. Cells at passage 39 were seeded on the 24-well BD insert system at the density of 8×10^4 cells/cm^2 and cultured for 19 days with medium changed every 2-3 days. Measure the transepithelial electrical resistance (TEER) value of each well. The wells can be used only when their TEER values are greater than 600 Ohms/cm^2.
Transport assay. After removing the cell culture medium from the 24-well insert plate, the cells were rinsed with warm transport buffer. Appropriate dosing and receiving solutions were applied to the donor and receiver chambers to initiate the transport assay in apical to basolateral (A to B) or basolateral to apical (B to A) directions (500 and 1300 μL for apical and basolateral wells, respectively). Duplicate wells in each direction were used for the test compound and control compound. The plate was incubated in CO2 incubator at 37° C., with 5% CO2/95% air and saturated humidity without shaking. The sample after 10-minute incubation was used as the To sample, and the sample after 90-minute incubation was used as the T90 sample. To and T90 samples were collected from the donor and receiver side of each well at the designed timepoint, mixed with the transport buffer and acetonitrile/MeOH (1:1, v/v) and the internal standard for LC/MS/MS analysis. All samples were vortexed and centrifuged at 4000 rpm at 4° C. for 15 minutes, diluted with pure water and stored at 4° C. before bioanalysis by LC/MS/MS.
Sample analysis. The concentrations of test compounds and control compounds in Caco-2 cells were quantitatively determined by LC/MS/MS method after protein precipitation.
Calculations. The apparent permeability (Papp, cm/s), efflux ratio (ER) and recovery parameters were calculated for Caco-2 drug transport assay using the following equations: […]
where VR is the solution volume in the receiver chamber (0.4 mL on the apical side, 1.2 mL on the basolateral side); Area is the surface area for the insert membrane, i.e., 0.3 cm^2 for the area of the monolayer; Time is incubation time, expressed in seconds, i. e., 5400 s (90 min) for the current experiment; Co is the initial concentration of test compound or peak area ratio of control compounds in the donor chamber (M); VD is the volume in the donor chambers (0.4 mL on the apical side, 1.2 mL on the basolateral side); CD and CR are the final concentrations of test compounds or peak area ratio of control compounds in donor and receiver chambers, respectively.
Compounds with Papp<1.0 are classified as low permeability, Papp between 1-10 are classified as medium permeability, and Papp>10 are classified as high permeability. An efflux ratio (ER)>2 indicates the compounds are potential substrates for intestinal cell efflux transporters.
On to `CC(C)(C)[C@H](N)C(=O)OC[C@H]1O[C@@](C#N)(c2ccc3c(N)ncnn23)[C@H](O)[C@@H]1OC(=O)CC1CCCCC1` [Compound 32, ((2R,3S,4R,5R)-5-(4-aminopyrrolo[2,1-f][1,2,4]triazin-7-yl)-5-cyano-3-(2-cyclohexylacetoxy)-4-hydroxytetrahydrofuran-2-yl)methyl (S)-2-amino-3,3-dimethylbutanoate], for which the Papp A→B at 90 min came to 15.4 ×10⁻⁶ cm/s, the Papp B→A at 90 min was determined as 20.7 ×10⁻⁶ cm/s and the efflux ratio at 90 min was found to be 1.34.
With `CC(=O)Nc1ncnn2c([C@]3(C#N)O[C@H](COC(=O)[C@@H](N)C(C)(C)C)[C@@H](OC(=O)CC4CCCCC4)[C@H]3O)ccc12` [Compound 33, ((2R,3S,4R,5R)-5-(4-acetamidopyrrolo[2,1-f][1,2,4]triazin-7-yl)-5-cyano-3-(2-cyclohexylacetoxy)-4-hydroxytetrahydrofuran-2-yl)methyl (S)-2-amino-3,3-dimethylbutanoate], the Papp A→B at 90 min amounted to 24.4 ×10⁻⁶ cm/s.
With `CC(=O)OCOC(=O)Nc1ncnn2c([C@]3(C#N)O[C@H](COC(=O)[C@@H](N)C(C)(C)C)[C@@H](OC(=O)CC4CCCCC4)[C@H]3O)ccc12` [Compound 36, ((2R,3S,4R,5R)-5-(4-(((acetoxymethoxy)carbonyl)amino)pyrrolo[2,1-f][1,2,4]triazin-7-yl)-5-cyano-3-(2-cyclohexylacetoxy)-4-hydroxytetrahydrofuran-2-yl)methyl (S)-2-amino-3,3-dimethylbutanoate], the Papp A→B at 90 min was 0.93 ×10⁻⁶ cm/s, the Papp B→A at 90 min came to 1.15 ×10⁻⁶ cm/s and the efflux ratio at 90 min was 1.24.
Take `CC(C)(C)[C@H](N)C(=O)OC[C@H]1O[C@@](C#N)(c2ccc3c(NC(=O)CC4CCCCC4)ncnn23)[C@H](O)[C@@H]1O` [Compound 39, ((2R,3S,4R,5R)-5-cyano-5-(4-(2-cyclohexylacetamido)pyrrolo[2,1-f][1,2,4]triazin-7-yl)-3,4-dihydroxytetrahydrofuran-2-yl)methyl (S)-2-amino-3,3-dimethylbutanoate]: the Papp A→B at 90 min is 0.72 ×10⁻⁶ cm/s, the Papp B→A at 90 min was 16.9 ×10⁻⁶ cm/s and the efflux ratio at 90 min came to 23.4.
The like results for `CCC(=O)O[C@H]1[C@@H](O)[C@](C#N)(c2ccc3c(NC(=O)OCOC(=O)C(C)(C)C)ncnn23)O[C@@H]1COC(=O)[C@@H](N)C(C)(C)C` [Compound 40, ((2R,3S,4R,5R)-5-cyano-4-hydroxy-5-(4-((((pivaloyloxy)methoxy)carbonyl)amino)pyrrolo[2,1-f][1,2,4]triazin-7-yl)-3-(propionyloxy)tetrahydrofuran-2-yl)methyl (S)-2-amino-3,3-dimethylbutanoate] were, in that order, 0.13 ×10⁻⁶ cm/s, 4.5 ×10⁻⁶ cm/s and 34.4.
Take `CCCCCCOC(=O)Nc1ncnn2c([C@]3(C#N)O[C@H](COC(=O)[C@@H](N)C(C)(C)C)[C@@H](O)[C@H]3O)ccc12` [Compound 41, ((2R,3S,4R,5R)-5-cyano-5-(4-(((hexyloxy)carbonyl)amino)pyrrolo[2,1-f][1,2,4]triazin-7-yl)-3,4-dihydroxytetrahydrofuran-2-yl)methyl (S)-2-amino-3,3-dimethylbutanoate]: the Papp A→B at 90 min is 1.41 ×10⁻⁶ cm/s, the Papp B→A at 90 min came out at 14.6 ×10⁻⁶ cm/s and the efflux ratio at 90 min was found to be 10.4.
With `CCCCCCOC(=O)Nc1ncnn2c([C@]3(C#N)O[C@H](COC(=O)[C@@H](N)C(C)(C)C)[C@@H](OC(=O)CC)[C@H]3O)ccc12` [Compound 42, ((2R,3S,4R,5R)-5-cyano-5-(4-(((hexyloxy)carbonyl)amino)pyrrolo[2,1-f][1,2,4]triazin-7-yl)-4-hydroxy-3-(propionyloxy)tetrahydrofuran-2-yl)methyl (S)-2-amino-3,3-dimethylbutanoate], the Papp A→B at 90 min came to 4.24 ×10⁻⁶ cm/s, the Papp B→A at 90 min was found to be 3.97 ×10⁻⁶ cm/s and the efflux ratio at 90 min was 0.94.
Take `CCC(=O)O[C@H]1[C@@H](O)[C@](C#N)(c2ccc3c(NC(=O)OCOC(C)=O)ncnn23)O[C@@H]1COC(=O)[C@@H](N)C(C)(C)C` [Compound 43, ((2R,3S,4R,5R)-5-(4-(((acetoxymethoxy)carbonyl)amino)pyrrolo[2,1-f][1,2,4]triazin-7-yl)-5-cyano-4-hydroxy-3-(propionyloxy)tetrahydrofuran-2-yl)methyl (S)-2-amino-3,3-dimethylbutanoate]: the Papp A→B at 90 min worked out at 1.49 ×10⁻⁶ cm/s, the Papp B→A at 90 min was determined as 1.02 ×10⁻⁶ cm/s and the efflux ratio at 90 min came out at 0.69.
In the case of `CC(=O)OCOC(=O)Nc1ncnn2c([C@]3(C#N)O[C@H](COC(=O)CC4CCCCC4)[C@@H](OC(=O)[C@@H](N)C(C)(C)C)[C@H]3O)ccc12` [Compound 46, (2R,3S,4R,5R)-5-(4-(((acetoxymethoxy)carbonyl)amino)pyrrolo[2,1-f][1,2,4]triazin-7-yl)-5-cyano-2-((2-cyclohexylacetoxy)methyl)-4-hydroxytetrahydrofuran-3-yl (S)-2-amino-3,3-dimethylbutanoate], the Papp A→B at 90 min came to 1.45 ×10⁻⁶ cm/s, the Papp B→A at 90 min amounted to 0.79 ×10⁻⁶ cm/s and the efflux ratio at 90 min was determined as 0.54.
For the molecule `CCCCC(=O)Nc1ncnn2c([C@]3(C#N)O[C@H](COC(=O)CC4CCC4)[C@@H](OC(=O)[C@@H](N)C(C)(C)C)[C@H]3O)ccc12` [Compound 47, (2R,3S,4R,5R)-5-cyano-2-((2-cyclobutylacetoxy)methyl)-4-hydroxy-5-(4-pentanamidopyrrolo[2,1-f][1,2,4]triazin-7-yl)tetrahydrofuran-3-yl (S)-2-amino-3,3-dimethylbutanoate], the Papp A→B at 90 min turned out to be 4.57 ×10⁻⁶ cm/s, the Papp B→A at 90 min is 12.2 ×10⁻⁶ cm/s and the efflux ratio at 90 min came out at 2.68.
The corresponding values for `CCCCCC(=O)Nc1ncnn2c([C@]3(C#N)O[C@H](COC(=O)CC4CCC4)[C@@H](OC(=O)[C@@H](N)C(C)(C)C)[C@H]3O)ccc12` [Compound 48, (2R,3S,4R,5R)-5-cyano-2-((2-cyclobutylacetoxy)methyl)-5-(4-hexanamidopyrrolo[2,1-f][1,2,4]triazin-7-yl)-4-hydroxytetrahydrofuran-3-yl (S)-2-amino-3,3-dimethylbutanoate] are 2.02 ×10⁻⁶ cm/s, 4.72 ×10⁻⁶ cm/s and 2.34.
Turning to `CCOC(C)(C)C(=O)Nc1ncnn2c([C@]3(C#N)O[C@H](COC(=O)CC4CCC4)[C@@H](OC(=O)[C@@H](N)C(C)(C)C)[C@H]3O)ccc12` [Compound 49, (2R,3S,4R,5R)-5-cyano-2-((2-cyclobutylacetoxy)methyl)-5-(4-(2-ethoxy-2-methylpropanamido)pyrrolo[2,1-f][1,2,4]triazin-7-yl)-4-hydroxytetrahydrofuran-3-yl (S)-2-amino-3,3-dimethylbutanoate], the Papp A→B at 90 min turned out to be 6.24 ×10⁻⁶ cm/s, the Papp B→A at 90 min is 5.67 ×10⁻⁶ cm/s and the efflux ratio at 90 min amounted to 0.91.
Turning to `CCC(CC)C(=O)Nc1ncnn2c([C@]3(C#N)O[C@H](COC(=O)CC4CCC4)[C@@H](OC(=O)[C@@H](N)C(C)(C)C)[C@H]3O)ccc12` [Compound 50, (2R,3S,4R,5R)-5-cyano-2-((2-cyclobutylacetoxy)methyl)-5-(4-(2-ethylbutanamido)pyrrolo[2,1-f][1,2,4]triazin-7-yl)-4-hydroxytetrahydrofuran-3-yl (S)-2-amino-3,3-dimethylbutanoate], the Papp A→B at 90 min stood at 8.66 ×10⁻⁶ cm/s, the Papp B→A at 90 min stood at 8.25 ×10⁻⁶ cm/s and the efflux ratio at 90 min amounted to 0.95.

The term Papp A→B denotes how fast a substance crosses the layer from the apical side. Higher therefore signals fast passage. One may read the Papp B→A as how fast a substance crosses the layer from the basolateral side. What is called efflux ratio is a quotient of directional permeabilities that is used to spot active efflux.
